Reference: patent publication US20090018111A1, “Novel Antimicrobial Medicament” (priority 2004, published 2009)

Key:
Assay in all cases: Sensitivity test (agar dilution), clinical isolate
[1] = system: B. cepacia 14300; assay type: cell-based, Burkholderia cepacia
Experimental: (§1) In addition, the antibacterial activities were tested against strains which are comparatively less sensitive to β-lactam compounds, namely clinically isolated 13 strains of Acinetobacter calcoaceticus and Acinetobacter lwoffi, clinically isolated 11 strains of Serratia marcescens, clinically isolated 12 strains of Burkholderia cepacia, and clinically isolated 15 strains of Pseudomonas aeruginosa.
(§2) According to the standard method of Japan Chemotherapeutic Society (Chemotherapy, vol. […], p 76-79 (1981)) the test was carried out using the agar dilution method. After dissolving test samples in distilled water, agar medium containing the test samples was prepared in such a manner that the final concentration became twice serial dilution by pouring serially diluted combination drug solution or a single drug solution into agar medium. As agar medium was used Mueller Hinton Agar medium (MHA). Then, each strain was cultivated over night at 37° C. in an incubator and suspended in buffered saline solution with gelatin (BSG) in the concentration of about 10^6 CFU/ml. The suspension (about 5 μl) containing test strains was inoculated to the medium containing the test samples by Micro Planter.
(§3) Each drug was weighed, and dissolved in distilled water to give a test sample. When the drugs are used in combination, two kinds of solution containing each drug were mixed so as to be various ratio of concentration to give a mixed solution. When the sample is subjected to sensitivity test, this mixed solution was diluted by twice serial dilution method.
(§4) Furthermore, when the drug is solely used, each test sample was used as it is, and diluted by twice serial dilution method from the maximum concentration to the minimum concentration.

[2] = system: B. cepacia 14427; assay type: cell-based, Burkholderia cepacia
Experimental: as §1, §2, §3, §4

[3] = system: B. cepacia 14428; assay type: cell-based, Burkholderia cepacia
Experimental: as §1, §2, §3, §4

[4] = system: B. cepacia 14429; assay type: cell-based, Burkholderia cepacia
Experimental: as §1, §2, §3, §4

[5] = system: B. cepacia 14430; assay type: cell-based, Burkholderia cepacia
Experimental: as §1, §2, §3, §4

[6] = system: B. cepacia 14607; assay type: cell-based, Burkholderia cepacia
Experimental: as §1, §2, §3, §4

[7] = system: B. cepacia 1892324; assay type: cell-based, Burkholderia cepacia
Experimental: as §1, §2, §3, §4

[8] = system: B. cepacia 1993527; assay type: cell-based, Burkholderia cepacia
Experimental: as §1, §2, §3, §4

[9] = system: B. cepacia 3138; assay type: cell-based, Burkholderia cepacia
Experimental: as §1, §2, §3, §4

[10] = system: B. cepacia 7247; assay type: cell-based, Burkholderia cepacia
Experimental: as §1, §2, §3, §4

[11] = system: P. aeruginosa 12789; assay type: cell-based, Pseudomonas aeruginosa
Experimental: as §1, §2, §3, §4

[12] = system: P. aeruginosa 13245; assay type: cell-based, Pseudomonas aeruginosa
Experimental: as §1, §2, §3, §4

[13] = system: P. aeruginosa 13250; assay type: cell-based, Pseudomonas aeruginosa
Experimental: as §1, §2, §3, §4

[14] = system: P. aeruginosa 13285; assay type: cell-based, Pseudomonas aeruginosa
Experimental: as §1, §2, §3, §4

[15] = system: P. aeruginosa 15032; assay type: cell-based, Pseudomonas aeruginosa
Experimental: as §1, §2, §3, §4

C[C@H]1C=C(c2csc(SC3=C(C(=O)O)N4C(=O)[C@H]([C@@H](C)O)[C@H]4[C@H]3C)n2)CN1 [SM, (4R,5S,6S)-6-[(1R)-1-Hydroxyethyl]-4-methyl-3-({4-[(5S)-5-methyl-2,5-dihydro-1H-pyrrol-3-yl]-1,3-thiazol-2-yl}sulfanyl)-7-oxo-1-azabicyclo[3.2.0]hept-2-ene-2-carboxylic acid]
MIC ([1]; Burkholderia cepacia, 14300, Concomitant (ME:SM = 1:1)): 0.5 µg/mL | MIC ([1]; Burkholderia cepacia, 14300, Concomitant (ME:SM = 1:2)): 1 µg/mL | MIC ([1]; Burkholderia cepacia, 14300, Concomitant (ME:SM = 1:4)): 1 µg/mL | MIC ([1]; Burkholderia cepacia, 14300, Concomitant (ME:SM = 2:1)): 0.25 µg/mL | MIC ([1]; Burkholderia cepacia, 14300, alone): 2 µg/mL | MIC ([2]; Burkholderia cepacia, 14427, Concomitant (ME:SM = 1:1)): 1 µg/mL | MIC ([2]; Burkholderia cepacia, 14427, Concomitant (ME:SM = 1:2)): 1 µg/mL | MIC ([2]; Burkholderia cepacia, 14427, Concomitant (ME:SM = 1:4)): 2 µg/mL | MIC ([2]; Burkholderia cepacia, 14427, Concomitant (ME:SM = 2:1)): 0.5 µg/mL | MIC ([2]; Burkholderia cepacia, 14427, alone): 8 µg/mL | MIC ([3]; Burkholderia cepacia, 14428, Concomitant (ME:SM = 1:1)): 1 µg/mL | MIC ([3]; Burkholderia cepacia, 14428, Concomitant (ME:SM = 1:2)): 2 µg/mL | MIC ([3]; Burkholderia cepacia, 14428, Concomitant (ME:SM = 1:4)): 2 µg/mL | MIC ([3]; Burkholderia cepacia, 14428, Concomitant (ME:SM = 2:1)): 0.5 µg/mL | MIC ([3]; Burkholderia cepacia, 14428, alone): 8 µg/mL | MIC ([4]; Burkholderia cepacia, 14429, Concomitant (ME:SM = 1:1)): 1 µg/mL | MIC ([4]; Burkholderia cepacia, 14429, Concomitant (ME:SM = 1:2)): 1 µg/mL | MIC ([4]; Burkholderia cepacia, 14429, Concomitant (ME:SM = 1:4)): 2 µg/mL | MIC ([4]; Burkholderia cepacia, 14429, Concomitant (ME:SM = 2:1)): 0.5 µg/mL | MIC ([4]; Burkholderia cepacia, 14429, alone): 4 µg/mL | MIC ([5]; Burkholderia cepacia, 14430, Concomitant (ME:SM = 1:1)): 1 µg/mL | MIC ([5]; Burkholderia cepacia, 14430, Concomitant (ME:SM = 1:2)): 2 µg/mL | MIC ([5]; Burkholderia cepacia, 14430, Concomitant (ME:SM = 1:4)): 8 µg/mL | MIC ([5]; Burkholderia cepacia, 14430, Concomitant (ME:SM = 2:1)): 1 µg/mL | MIC ([5]; Burkholderia cepacia, 14430, alone): 8 µg/mL | MIC ([6]; Burkholderia cepacia, 14607, Concomitant (ME:SM = 1:1)): 1 µg/mL | MIC ([6]; Burkholderia cepacia, 14607, Concomitant (ME:SM = 1:2)): 1 µg/mL | MIC ([6]; Burkholderia cepacia, 14607, Concomitant (ME:SM = 1:4)): 2 µg/mL | MIC ([6]; Burkholderia cepacia, 14607, Concomitant (ME:SM = 2:1)): 0.5 µg/mL | MIC ([6]; Burkholderia cepacia, 14607, alone): 4 µg/mL | MIC ([7]; Burkholderia cepacia, 1892324, Concomitant (ME:SM = 1:1)): 1 µg/mL | MIC ([7]; Burkholderia cepacia, 1892324, Concomitant (ME:SM = 1:2)): 2 µg/mL | MIC ([7]; Burkholderia cepacia, 1892324, Concomitant (ME:SM = 1:4)): 2 µg/mL | MIC ([7]; Burkholderia cepacia, 1892324, Concomitant (ME:SM = 2:1)): 1 µg/mL | MIC ([7]; Burkholderia cepacia, 1892324, alone): 4 µg/mL | MIC ([8]; Burkholderia cepacia, 1993527, Concomitant (ME:SM = 1:1)): 1 µg/mL | MIC ([8]; Burkholderia cepacia, 1993527, Concomitant (ME:SM = 1:2)): 2 µg/mL | MIC ([8]; Burkholderia cepacia, 1993527, Concomitant (ME:SM = 1:4)): 8 µg/mL | MIC ([8]; Burkholderia cepacia, 1993527, Concomitant (ME:SM = 2:1)): 1 µg/mL | MIC ([8]; Burkholderia cepacia, 1993527, alone): 8 µg/mL | MIC ([9]; Burkholderia cepacia, 3138, Concomitant (ME:SM = 1:1)): 1 µg/mL | MIC ([9]; Burkholderia cepacia, 3138, Concomitant (ME:SM = 1:2)): 2 µg/mL | MIC ([9]; Burkholderia cepacia, 3138, Concomitant (ME:SM = 1:4)): 8 µg/mL | MIC ([9]; Burkholderia cepacia, 3138, Concomitant (ME:SM = 2:1)): 1 µg/mL | MIC ([9]; Burkholderia cepacia, 3138, alone): 8 µg/mL | MIC ([10]; Burkholderia cepacia, 7247, Concomitant (ME:SM = 1:1)): 2 µg/mL | MIC ([10]; Burkholderia cepacia, 7247, Concomitant (ME:SM = 1:2)): 4 µg/mL | MIC ([10]; Burkholderia cepacia, 7247, Concomitant (ME:SM = 1:4)): 8 µg/mL | MIC ([10]; Burkholderia cepacia, 7247, Concomitant (ME:SM = 2:1)): 1 µg/mL | MIC ([10]; Burkholderia cepacia, 7247, alone): 16 µg/mL | MIC ([11]; Pseudomonas aeruginosa, 12789, Concomitant (ME:SM = 1:1)): 0.5 µg/mL | MIC ([11]; Pseudomonas aeruginosa, 12789, Concomitant (ME:SM = 1:2)): 1 µg/mL | MIC ([11]; Pseudomonas aeruginosa, 12789, Concomitant (ME:SM = 1:4)): 2 µg/mL | MIC ([11]; Pseudomonas aeruginosa, 12789, Concomitant (ME:SM = 2:1)): 0.25 µg/mL | MIC ([11]; Pseudomonas aeruginosa, 12789, alone): 8 µg/mL | MIC ([12]; Pseudomonas aeruginosa, 13245, Concomitant (ME:SM = 1:1)): 2 µg/mL | MIC ([12]; Pseudomonas aeruginosa, 13245, Concomitant (ME:SM = 1:2)): 2 µg/mL | MIC ([12]; Pseudomonas aeruginosa, 13245, Concomitant (ME:SM = 1:4)): 8 µg/mL | MIC ([12]; Pseudomonas aeruginosa, 13245, Concomitant (ME:SM = 2:1)): 1 µg/mL | MIC ([12]; Pseudomonas aeruginosa, 13245, alone): 16 µg/mL | MIC ([13]; Pseudomonas aeruginosa, 13250, Concomitant (ME:SM = 1:1)): 0.5 µg/mL | MIC ([13]; Pseudomonas aeruginosa, 13250, Concomitant (ME:SM = 1:2)): 0.5 µg/mL | MIC ([13]; Pseudomonas aeruginosa, 13250, Concomitant (ME:SM = 1:4)): 2 µg/mL | MIC ([13]; Pseudomonas aeruginosa, 13250, Concomitant (ME:SM = 2:1)): 0.25 µg/mL | MIC ([13]; Pseudomonas aeruginosa, 13250, alone): 8 µg/mL | MIC ([14]; Pseudomonas aeruginosa, 13285, Concomitant (ME:SM = 1:1)): 4 µg/mL | MIC ([14]; Pseudomonas aeruginosa, 13285, Concomitant (ME:SM = 1:2)): 8 µg/mL | MIC ([14]; Pseudomonas aeruginosa, 13285, Concomitant (ME:SM = 1:4)): 16 µg/mL | MIC ([14]; Pseudomonas aeruginosa, 13285, Concomitant (ME:SM = 2:1)): 2 µg/mL | MIC ([14]; Pseudomonas aeruginosa, 13285, alone): 32 µg/mL | MIC ([15]; Pseudomonas aeruginosa, 15032, Concomitant (ME:SM = 1:1)): 2 µg/mL | MIC ([15]; Pseudomonas aeruginosa, 15032, Concomitant (ME:SM = 1:2)): 2 µg/mL | MIC ([15]; Pseudomonas aeruginosa, 15032, Concomitant (ME:SM = 1:4)): 8 µg/mL | MIC ([15]; Pseudomonas aeruginosa, 15032, Concomitant (ME:SM = 2:1)): 1 µg/mL | MIC ([15]; Pseudomonas aeruginosa, 15032, alone): 8 µg/mL
